From ChEMBL document CHEMBL5137026, “Novel deuterated Mnk1/2 protein degrader VNLG-152R analogs: Synthesis, In vitro Anti-TNBC activities and pharmacokinetics in mice” (Eur J Med Chem, 2022)
One block for each compound: values may come before it.

Legend:
MDA-MB-231 [1] = experiment: Induction of apoptosis in human MDA-MB-231 cells assessed as downregulation of […] measured after 24 hrs by SDS PAGE based Western blotting analysis; assay type: functional, cell-based
MDA-MB-468 [2] = experiment: Induction of apoptosis in human MDA-MB-468 cells assessed as downregulation of […] measured after 24 hrs by SDS PAGE based Western blotting analysis; assay type: functional, cell-based
MDA-MB-231 [3] = experiment: Induction of apoptosis in human MDA-MB-231 cells assessed as downregulation of Bcl-2 measured after 24 hrs by SDS PAGE based Western blotting analysis; assay type: functional, cell-based
MDA-MB-468 [4] = experiment: Induction of apoptosis in human MDA-MB-468 cells assessed as downregulation of Bcl-2 measured after 24 hrs by SDS PAGE based Western blotting analysis; assay type: functional, cell-based
MDA-MB-231 [5] = experiment: Induction of apoptosis in human MDA-MB-231 cells assessed as upregulation of Bax measured after 24 hrs by SDS PAGE based Western blotting analysis; assay type: functional, cell-based
MDA-MB-468 [6] = experiment: Induction of apoptosis in human MDA-MB-468 cells assessed as upregulation of Bax measured after 24 hrs by SDS PAGE based Western blotting analysis; assay type: functional, cell-based
MDA-MB-231 [7] = experiment: Downregulation of Mnk1 in human MDA-MB-231 cells measured after 24 hrs by SDS PAGE based Western blotting analysis; assay type: functional, cell-based
MDA-MB-231 [8] = experiment: Downregulation of PeIF4E in human MDA-MB-231 cells measured after 24 hrs by SDS PAGE based Western blotting analysis; assay type: functional, cell-based
MDA-MB-231 [9] = experiment: Antiproliferative activity against human MDA-MB-231 cells measured after 6 days by MTT assay; assay type: functional; conditions: MDA-MB-231, 144 h, time 6 day
MDA-MB-468 [10] = experiment: Antiproliferative activity against human MDA-MB-468 cells measured after 6 days by MTT assay; assay type: functional; conditions: MDA-MB-468, 144 h, time 6 day
[11] = Cmax in po dosed CD-1 mouse by LC/MS/MS analysis; assay type: ADME, organism-based; parameters: route po; conditions: in vivo
[12] = Tmax in po dosed CD-1 mouse by LC/MS/MS analysis; assay type: ADME, organism-based; conditions: in vivo
[13] = Half life in po dosed CD-1 mouse by LC/MS/MS analysis; assay type: ADME, organism-based; conditions: in vivo
[14] = AUC in po dosed CD-1 mouse by LC/MS/MS analysis; assay type: ADME, organism-based; parameters: route po; conditions: in vivo
[15] = MRT in po dosed CD-1 mouse by LC/MS/MS analysis; assay type: ADME, organism-based; conditions: in vivo
MDA-MB-231 [16] = experiment: Antiproliferative activity against human MDA-MB-231 cells measured after 24 hrs by MTT assay; assay type: functional
[17] = dose 5-20 µM, DDE = dose-dependent effect, tested as the 2H-labelled form
[18] = dose 5-20 µM, tested as the 2H-labelled form, DDE = dose-dependent effect
[19] = dose 5-20 µM, DDE = dose-dependent effect

Structure (SMILES): CC1=C(/C=C/C(C)=C/C=C/C(C)=C/C(=O)Nc2ccc(F)cc2)C(C)(C)CCC1n1ccnc1 (racemic; form 4)
- Activity (MDA-MB-231 [1]; [17]): Dde
- Activity (MDA-MB-468 [2]; [18]): Dde
- Activity (MDA-MB-231 [3]; [17]): Dde
- Activity (MDA-MB-468 [4]; [18]): Dde
- Activity (MDA-MB-231 [5]; [18]): Dde
- Activity (MDA-MB-468 [6]; [17]): Dde
- Activity (MDA-MB-231 [7]; [17]): Dde
- Activity (MDA-MB-231 [8]; [17]): Dde

Structure (SMILES): CC1=C(/C=C/C(C)=C/C=C/C(C)=C/C(=O)Nc2ccc(F)cc2)C(C)(C)CCC1n1ccnc1 (racemic; form 5)
- Activity (MDA-MB-231 [1]; [18]): Dde
- Activity (MDA-MB-468 [2]; [18]): Dde
- Activity (MDA-MB-231 [3]; [18]): Dde
- Activity (MDA-MB-468 [4]; [17]): Dde
- Activity (MDA-MB-231 [5]; [18]): Dde
- Activity (MDA-MB-468 [6]; [17]): Dde
- Activity (MDA-MB-231 [7]; [18]): Dde
- Activity (MDA-MB-231 [8]; [18]): Dde

- GI50 (MDA-MB-231 [9]): 710 nM
- GI50 (MDA-MB-468 [10]): 290 nM
- Cmax [11]: 1620 ng/mL
- Tmax [12]: 160 min
- half-life [13]: 617 min
- AUC [14]: 22600 ng·h/mL
- MRT [15]: 8.92 h
Structure (SMILES): [2H]c1nc([2H])n(C2([2H])CCC(C)(C)C(/C=C/C(C)=C/C=C/C(C)=C/C(=O)Nc3c([2H])c([2H])c(F)c([2H])c3[2H])=C2C)c1[2H] (racemic)

Structure (SMILES): CC1=C(/C=C/C(C)=C/C=C/C(C)=C/C(=O)Nc2ccc(F)cc2)C(C)(C)CCC1n1ccnc1 (racemic; form 8)
- Activity (MDA-MB-231 [1]; [17]): Dde
- Activity (MDA-MB-468 [2]; [17]): Dde
- Activity (MDA-MB-231 [3]; [17]): Dde
- Activity (MDA-MB-468 [4]; [18]): Dde
- Activity (MDA-MB-231 [5]; [18]): Dde
- Activity (MDA-MB-468 [6]; [17]): Dde
- Activity (MDA-MB-231 [7]; [17]): Dde
- Activity (MDA-MB-231 [8]; [18]): Dde

- GI50 (MDA-MB-231 [9]): 620 nM
- GI50 (MDA-MB-468 [10]): 270 nM
- Cmax [11]: 1360 ng/mL
- Tmax [12]: 45 min
- half-life [13]: 612 min
- AUC [14]: 15500 ng·h/mL
- MRT [15]: 8.48 h
Structure (SMILES): [2H]c1c([2H])c(NC(=O)/C=C(C)/C=C/C=C(C)/C=C/C2=C(C)C([2H])(n3ccnc3)CCC2(C)C)c([2H])c([2H])c1F (racemic)

- GI50 (MDA-MB-231 [9]): 620 nM
- GI50 (MDA-MB-468 [10]): 250 nM
- Cmax [11]: 455 ng/mL
- Tmax [12]: 49.8 min
- half-life [13]: 260 min
- AUC [14]: 2060 ng·h/mL
- MRT [15]: 2.89 h
Structure (SMILES): [2H]c1nc([2H])n(C2CCC(C)(C)C(/C=C/C(C)=C/C=C/C(C)=C/C(=O)Nc3c([2H])c([2H])c(F)c([2H])c3[2H])=C2C)c1[2H] (racemic)

Structure (SMILES): CC1=C(/C=C/C(C)=C/C=C/C(C)=C/C(=O)Nc2ccc(F)cc2)C(C)(C)CCC1n1ccnc1 (racemic; form 1) [listing 1 of 2 here]
- Activity (MDA-MB-231 [1]; [19]): Dde
- Activity (MDA-MB-468 [2]; [19]): Dde
- Activity (MDA-MB-231 [3]; [19]): Dde
- Activity (MDA-MB-468 [4]; [19]): Dde
- Activity (MDA-MB-231 [5]; [19]): Dde
- Activity (MDA-MB-468 [6]; [19]): Dde
- Activity (MDA-MB-231 [7]; [19]): Dde
- Activity (MDA-MB-231 [8]; [19]): Dde

- GI50 (MDA-MB-231 [9]): 860 nM
- GI50 (MDA-MB-468 [10]): 190 nM
- Cmax [11]: 1030 ng/mL
- Tmax [12]: 150 min
- half-life [13]: 723 min
- AUC [14]: 17600 ng·h/mL
- MRT [15]: 9.06 h
Structure (SMILES): [2H]C1(n2ccnc2)CCC(C)(C)C(/C=C/C(C)=C/C=C/C(C)=C/C(=O)Nc2ccc(F)cc2)=C1C (racemic)

Structure (SMILES): CC1=C(/C=C/C(C)=C/C=C/C(C)=C/C(=O)Nc2ccc(F)cc2)C(C)(C)CCC1n1ccnc1 (racemic; form 3)
- Activity (MDA-MB-231 [1]; [17]): Dde
- Activity (MDA-MB-468 [2]; [18]): Dde
- Activity (MDA-MB-231 [3]; [17]): Dde
- Activity (MDA-MB-468 [4]; [18]): Dde
- Activity (MDA-MB-231 [5]; [17]): Dde
- Activity (MDA-MB-468 [6]; [18]): Dde
- Activity (MDA-MB-231 [7]; [17]): Dde
- Activity (MDA-MB-231 [8]; [17]): Dde

- GI50 (MDA-MB-231 [9]): 830 nM
- GI50 (MDA-MB-468 [10]): 400 nM
- Cmax [11]: 4650 ng/mL
- Tmax [12]: 49.8 min
- half-life [13]: 217 min
- AUC [14]: 22800 ng·h/mL
- MRT [15]: 3.02 h
Structure (SMILES): CC1=C(/C=C/C(C)=C/C=C/C(C)=C/C(=O)Nc2ccc(F)cc2)C(C)(C)CCC1n1ccnc1 (racemic; form 1) [listing 2 of 2 here]

Structure (SMILES): CC1=C(/C=C/C(C)=C/C=C/C(C)=C/C(=O)Nc2ccc(F)cc2)C(C)(C)CCC1n1ccnc1 (racemic; form 6)
- Activity (MDA-MB-231 [1]; [18]): Dde
- Activity (MDA-MB-468 [2]; [17]): Dde
- Activity (MDA-MB-231 [3]; [18]): Dde
- Activity (MDA-MB-468 [4]; [18]): Dde
- Activity (MDA-MB-231 [5]; [17]): Dde
- Activity (MDA-MB-468 [6]; [18]): Dde
- Activity (MDA-MB-231 [7]; [18]): Dde
- Activity (MDA-MB-231 [8]; [18]): Dde

Structure (SMILES): CC1=C(/C=C/C(C)=C/C=C/C(C)=C/C(=O)Nc2ccc(F)cc2)C(C)(C)CCC1n1ccnc1 (racemic; form 7)
- Activity (MDA-MB-231 [1]; [18]): Dde
- Activity (MDA-MB-468 [2]; [17]): Dde
- Activity (MDA-MB-231 [3]; [17]): Dde
- Activity (MDA-MB-468 [4]; [17]): Dde
- Activity (MDA-MB-231 [5]; [18]): Dde
- Activity (MDA-MB-468 [6]; [17]): Dde
- Activity (MDA-MB-231 [7]; [18]): Dde
- Activity (MDA-MB-231 [8]; [18]): Dde

- GI50 (MDA-MB-231 [9]): 830 nM
- GI50 (MDA-MB-468 [10]): 270 nM
- Cmax [11]: 501 ng/mL
- Tmax [12]: 40.2 min
- half-life [13]: 256 min
- AUC [14]: 2700 ng·h/mL
- MRT [15]: 5.49 h
Structure (SMILES): [2H]c1nc([2H])n(C2([2H])CCC(C)(C)C(/C=C/C(C)=C/C=C/C(C)=C/C(=O)Nc3ccc(F)cc3)=C2C)c1[2H] (racemic)

- GI50 (MDA-MB-231 [9]): 220 nM
- GI50 (MDA-MB-468 [10]): 100 nM
- GI50 (MDA-MB-231 [16]): 300 nM
Structure (SMILES): CC(=O)O[C@H]1C(=O)[C@@]2(C)[C@H]([C@H](OC(=O)c3ccccc3)[C@]3(O)C[C@H](OC(=O)[C@H](O)[C@@H](NC(=O)c4ccccc4)c4ccccc4)C(C)=C1C3(C)C)[C@]1(OC(C)=O)CO[C@@H]1C[C@@H]2O [PACLITAXEL]

- GI50 (MDA-MB-231 [9]): 710 nM
- GI50 (MDA-MB-468 [10]): 280 nM
- Cmax [11]: 151 ng/mL
- Tmax [12]: 79.8 min
- half-life [13]: 503 min
- AUC [14]: 1740 ng·h/mL
- MRT [15]: 3.57 h
Structure (SMILES): [2H]c1nc([2H])n(C2CCC(C)(C)C(/C=C/C(C)=C/C=C/C(C)=C/C(=O)Nc3ccc(F)cc3)=C2C)c1[2H] (racemic)

Structure (SMILES): CC1=C(/C=C/C(C)=C/C=C/C(C)=C/C(=O)Nc2ccc(F)cc2)C(C)(C)CCC1n1ccnc1 (racemic; form 2)
- Activity (MDA-MB-231 [1]; [18]): Dde
- Activity (MDA-MB-468 [2]; [17]): Dde
- Activity (MDA-MB-231 [3]; [17]): Dde
- Activity (MDA-MB-468 [4]; [18]): Dde
- Activity (MDA-MB-231 [5]; [18]): Dde
- Activity (MDA-MB-468 [6]; [18]): Dde
- Activity (MDA-MB-231 [7]; [18]): Dde
- Activity (MDA-MB-231 [8]; [18]): Dde

- GI50 (MDA-MB-231 [9]): 770 nM
- GI50 (MDA-MB-468 [10]): 270 nM
- Cmax [11]: 273 ng/mL
- Tmax [12]: 49.8 min
- half-life [13]: 294 min
- AUC [14]: 1730 ng·h/mL
- MRT [15]: 4.63 h
Structure (SMILES): [2H]c1c([2H])c(NC(=O)/C=C(C)/C=C/C=C(C)/C=C/C2=C(C)C(n3ccnc3)CCC2(C)C)c([2H])c([2H])c1F (racemic)
